Article PMC8303886, “Polyphenylglyoxamide-Based Amphiphilic Small Molecular Peptidomimetics as Antibacterial Agents with Anti-Biofilm Activity” (International Journal of Molecular Sciences, 2021)
Values joined by “and” are separate entries in the source; they are usually repeats but may differ in a detail not shown here. Equal entries are not always repeated. Where two headings read alike, the source gives them in different places.

How the values were obtained:
[1] = tested on: S. aureus (SA38); experiment: Minimum inhibitory concentration (MIC) assay against S. aureus; assay type: cell-based, Staphylococcus aureus; details: Staphylococcus aureus
[2] = tested on: E. coli (K12); experiment: Minimum inhibitory concentration (MIC) assay against E. coli; assay type: cell-based; details: Escherichia coli
[3] = tested on: P. aeruginosa (PAO1); experiment: Minimum inhibitory concentration (MIC) assay against P. aeruginosa; assay type: cell-based; details: Pseudomonas aeruginosa
[4] = tested on: pre-established S. aureus biofilms; experiment: Disruption of pre-established S. aureus biofilms (crystal violet assay); assay type: cell-based, Staphylococcus aureus
Protocol: As bacterial biofilms are one of the major challenges in treating bacterial infection, the ability of the synthesised peptidomimetics to disrupt pre-established biofilms was investigated.
(§1) Bacterial cultures (S. aureus and E. coli) were cultured in MHB at 37 °C with shaking at 120 rpm for 24 h. The resulting bacterial culture was washed twice with MHB with centrifugation after each wash. The bacterial solution was then diluted with fresh MHB to a turbidity of OD660 = 0.1 in MHB (equivalent to 10^8 colony forming unit (CFU)/mL of bacteria), followed by diluting to 10^6 CFU/mL in MHB. A total of 200 µL of the bacterial solution was dispensed to wells in a flat-bottom 96-well plate (Costar). The biofilm was then grown in the plate at 37 °C for 24 h. After incubation, loosely bound cells were washed away with 1× phosphate-buffered saline (PBS, pH 7.4). The biofilms were then supplemented with different concentrations of peptidomimetics dissolved in DMSO and incubated at 37 °C with shaking at 120 rpm for a further 24 h. Biofilms adhered on the plate substratum were quantified, using crystal violet staining as described previously. The experiment was performed in triplicate.

[5] = tested on: pre-established E. coli biofilms; experiment: Disruption of pre-established E. coli biofilms (crystal violet assay); assay type: cell-based, Escherichia coli
Protocol: as §1

[6] = tested on: MRC-5 normal human lung fibroblasts; experiment: MTT cytotoxicity assay; assay type: cell-based; details: Homo sapiens, MRC5, 72 h, 72 h drug incubation, read-out: IC50 against MRC-5 normal human lung fibroblasts
Protocol: The IC50 values of the tested peptidomimetics were determined from a dose-response curve. […] The therapeutic indices for each tested peptidomimetic against Gram-positive S. aureus and Gram-negative E. coli were calculated by dividing the IC50 value against human cells by the corresponding MIC value (Table 2).
The toxicity of the peptidomimetics against normal human lung fibroblasts MRC-5 cells was measured, using an MTT (3-(4,5-dimethylthiazol-2-yl)-2,5-diphenyltetrazolium bromide) (Sigma Aldrich, St. Louis, MO, USA) colorimetric assay. The cells were cultured in minimal essential medium (MEM, Invitrogen) containing 10% foetal bovine serum (FBS). The cells were maintained at 37 °C in 5% CO2 as an adherent monolayer and was passaged upon reaching confluence by standard cell culture techniques. MRC-5 cells were seeded at 5000 cells/well in 96-well plates to ensure full confluence (quiescence) and left overnight to adhere to the plate wells. The adherent cells were treated with 1–500 μM of compounds by dissolving in DMSO and serially diluting with media. TY-01 was used as the positive control. The final concentration of DMSO was 0.5% (v/v). After the 72 h drug incubation, […] stock MTT solution (5 mg/mL) was added, and the cells were incubated for another 3.5–4 h. The MTT solution containing media was carefully aspirated without displacing the purple crystals from the bottom, and […] acid-isopropanol was added to all wells and mixed slowly by shaking with an orbital shaker to dissolve the dark blue crystals. […] The determination of IC50 values was performed using GraphPad Prism 7 (GraphPad, San Diego, CA, USA). Each experiment was performed in triplicate and was repeated in three independent experiments.

[7] = tested on: S. aureus (SA38); details: previously reported, cited from earlier work
[8] = tested on: E. coli (K12); set-up: method as in PMID 32947921; details: previously reported, cited from earlier work
[9] = tested on: P. aeruginosa (PAO1); set-up: method as in PMID 32947921; details: previously reported, cited from earlier work
[10] = tested on: S. aureus biofilm formation; experiment: Inhibition of S. aureus biofilm formation (crystal violet staining); assay type: cell-based, Staphylococcus aureus
Protocol: In this assay, S. aureus was incubated in the presence of different concentrations of the tested peptidomimetics under a static condition. After overnight incubation, planktonic bacteria were removed, and the remaining biofilms were quantified, using crystal violet staining.
S. aureus was cultured in Muller Hinton broth (MHB; Oxoid) at 37 °C with shaking at 120 rpm for 24 h. The resulting bacterial culture was washed twice with MHB with centrifugation after each wash. The bacterial solution was then diluted with fresh MHB to a turbidity of OD660 = 0.1 in MHB (equivalent to 10^8 colony forming unit (CFU)/mL of bacteria), followed by diluting to 10^6 CFU/mL in MHB. A total of 100 µL of the bacterial solution was added to wells of a 96-well plate (Costar; Sigma-Aldrich, St. Louis, MO, USA) containing 100 µL serially diluted peptidomimetics. After incubation at 37 °C for 24 h, loosely bound cells were washed away with 1× phosphate-buffered saline (PBS, pH 7.4). Biofilms adhered on the plate substratum were quantified, using crystal violet staining as described previously. Untreated bacteria were used as a negative control, where the percentage of biofilm mass reflected 100% biofilm growth. The experiment was performed in triplicate.

[11] = Haemolysis assay; assay type: cell-based; details: washed human red blood cells
Protocol: A total of 20 mL of human blood collected in EDTA coated tubes was transferred into a 50 mL centrifuge tube and centrifuged at 500× g (700) for 5 min. The supernatant plasma was discarded and an equal volume of 1× PBS was added. The washing was repeated five times with cells mixed by inversion. The washed pallet was then resuspended in 1:10 with PBS to yield an RBC concentration of ~5 × 10^8 RBC/mL. The peptidomimetics were serially diluted with PBS, with final concentrations ranging from 8 to 500 µM. Milli-Q water and 1× PBS were used as positive and negative controls. The cells were then incubated at 37 °C for 3 h. Following incubation, the suspension was centrifuged at 1100× g for 5 min. The final optical density was measured at 540 nm. The percentage of haemolysis was calculated, using the following equation. % haemolysis=(absorbance of test sample−absorbance of diluent)/(absorbance of positive control−absorbance of diluent)×100%

[12] = tested on: S. aureus cytoplasmic membrane; experiment: Cytoplasmic membrane permeability assay (diSC3-5 dye release); assay type: cell-based, Staphylococcus aureus; details: 1× and 2× MIC, read up to 15 min
Source text: This dye readily partitions into and aggregates in bacterial cell membranes, quenching its own fluorescence. However, structural damage to the bacterial cell membrane causes a loss in the membrane potential, which results in the leakage of dye from the bacterial cell membrane into the medium and an increase in fluorescence intensity. By detecting changes in fluorescence intensity, the integrity of the bacterial cytoplasmic membrane can be monitored.
Membrane potential sensitive dye diSC3–5 (3,3′-dipropylthiadicarbocyanine iodide), which penetrates inside bacterial cells depending on the membrane potential gradient of the cytoplasmic membrane, was used to determine the bacterial cytoplasmic membrane permeability following the procedure previously described with slight modification. Bacteria (S. aureus) were incubated in MHB with shaking at 37 °C for 16 h. After incubation, the bacteria were washed with 5 mM HEPES, supplemented with 20 mM glucose at pH 7.2 and diluted in the same buffer to an OD600 0.05–0.06 (equivalent to a final concentration of 10^7 CFU/mL bacteria). The diSC3–5 dye was added at 4 μM to the bacterial suspension. […] Fluorescence due to the release of dye was measured with a FLUOstar Omega (BMG Labtech) microplate reader at 5 min intervals at an excitation wavelength of 621 nm and an emission wavelength of 670 nm.

[13] = S. aureus SA38, read-out: MIC S. aureus
[14] = highest concentration tested 250 μM
[15] = 4× MIC, 24 h treatment (32 μM for 17c)
[16] = 2× MIC, 24 h treatment (64 μM for 17c)
[17] = in trypticase soy broth (TSB), Mueller Hinton broth (MHB) or cationic adjusted MHB, read-out: MIC S. aureus in different growth media

Question: With `CCCCCCCCCCCCS(=O)(=O)Nc1ccc(Br)cc1C(=O)C(=O)NCCC[N+](C)(C)C.[I-]` [Compound 17b, 3-(2-(5-Bromo-2-(dodecylsulfonamido)phenyl)-2-oxoacetamido)-N,N,N-trimethylpropan-1-aminium iodide] as the compound, how does the MIC [1, 13] read?
Answer: 8 µM and 5.6 µg/mL

Question: What about the MIC [2] of the same compound?
Answer: 32 µM and 22 µg/mL

Question: And the MIC [3]?
Answer: > 176 µg/mL

Question: And the MIC [3, 14]?
Answer: > 250 µM

Question: What about the “disruption of pre-established S. aureus biofilms” value ([4]; 1× MIC, 24 h treatment) of the same compound?
Answer: 20–36%

Question: And the “disruption of pre-established S. aureus biofilms” value [4, 15]?
Answer: 38%

Question: And the “disruption of pre-established E. coli biofilms” value [5, 16]?
Answer: 31%

Question: What about the IC50 [6] of the same compound?
Answer: 18.3 µM and 12.9 µg/mL

Question: With `CCCCCCCCS(=O)(=O)Nc1ccc(-c2ccccc2)cc1C(=O)C(=O)NCCCNC(=N)N` [Compound 33c] as the compound, how does the “MIC S. aureus” value [7] read?
Answer: 8 μM and 4.4 μg/mL

Question: What about the “MIC E. coli” value [8] of the same compound?
Answer: 63 μM and 35 μg/mL

Question: And the “MIC P. aeruginosa” value [9]?
Answer: 63 μM and 35 μg/mL

Question: Which MIC [1, 13] does the source give for `CCCCCCCCCCCCS(=O)(=O)Nc1ccc(-c2ccccc2)cc1C(=O)C(=O)NCCC[N+](C)(C)C.[I-]` [Compound 17c, 3-(2-(4-(Dodecylsulfonamido)-[1,1′-biphenyl]-3-yl)-2-oxoacetamido)-N,N,N-trimethylpropan-1-aminium iodide] here?
Answer: 8 µM and 5.6 µg/mL

Question: What about the MIC [1, 17] of the same compound?
Answer: 8 µM and 5.6 µg/mL

Question: What about the MIC [2] of the same compound?
Answer: 32 µM

Question: And the MIC [3]?
Answer: > 175 µg/mL

Question: What about the MIC [3, 14] of the same compound?
Answer: > 250 µM

Question: What about the “disruption of pre-established S. aureus biofilms” value ([4]; 1× MIC, 24 h treatment) of the same compound?
Answer: 20–36%

Question: And the “disruption of pre-established S. aureus biofilms” value [4, 15]?
Answer: 44%

Question: And the “disruption of pre-established E. coli biofilms” value [5, 16]?
Answer: 28%

Question: And the “inhibition of S. aureus biofilm formation” value (“inhibition” below) ([10]; 0.5× MIC (sub-MIC))?
Answer: 56%

Question: What about the “inhibition” value ([10]; 2× MIC (16 μM for 17c)) of the same compound?
Answer: 70%

Question: What about the “inhibition” value ([10]; 4× MIC) of the same compound?
Answer: 65%

Question: What about the IC50 [6] of the same compound?
Answer: 57.5 µM and 40.2 µg/mL

Question: What about the hemolysis at 3 h, 32 µM [11] of the same compound?
Answer: 16%

Question: What does the source list for `CCCCCCCCS(=O)(=O)Nc1ccc(-c2ccc(-c3ccccc3)cc2)cc1C(=O)C(=O)NCCC[N+](C)(C)C.[I-]` [Compound 16d, N,N,N-Trimethyl-3-(2-(4-(octylsulfonamido)-[1,1′:4′,1″-terphenyl]-3-yl)-2-oxoacetamido)propan-1-aminium iodide]?
Answer: MIC [1, 13]: 4 µM and 2.9 µg/mL; MIC [1, 17]: 4 µM and 2.9 µg/mL; MIC [2]: > 250 µM and > 180 µg/mL; MIC [3]: > 180 µg/mL; MIC [3, 14]: > 250 µM; disruption of pre-established S. aureus biofilms ([4]; 1× MIC, 24 h treatment): no antibiofilm activity; inhibition of S. aureus biofilm formation ([10]; 0.5× MIC (sub-MIC)): 35%; S. aureus cytoplasmic membrane disruption (increase in fluorescence intensity) [12]: least active compound; IC50 [6]: 53.7 µM and 38.6 µg/mL; hemolysis at 3 h, 32 µM [11]: 11%

Question: With `CCCCCCCCCCCCS(=O)(=O)Nc1ccccc1C(=O)C(=O)NCCCNC(=N)N.Cl` [Compound 34a, 2-(2-(Dodecylsulfonamido)phenyl)-N-(3-guanidinopropyl)-2-oxoacetamide hydrochloride] as the compound, how does the MIC [1, 13] read?
Answer: 8 µM and 4.3 µg/mL

Question: And the MIC [2]?
Answer: 16 µM and 8.5 µg/mL

Question: What about the MIC [3] of the same compound?
Answer: > 133 µg/mL

Question: And the MIC [3, 14]?
Answer: > 250 µM

Question: And the “disruption of pre-established S. aureus biofilms” value ([4]; 1× MIC, 24 h treatment)?
Answer: 20–36%

Question: What about the “disruption of pre-established S. aureus biofilms” value [4, 15] of the same compound?
Answer: 42%

Question: What about the “disruption of pre-established E. coli biofilms” value ([5]; 1× and 2× MIC, 24 h treatment) of the same compound?
Answer: unable to disrupt any pre-established E. coli biofilms

Question: And the “S. aureus cytoplasmic membrane disruption (increase in fluorescence intensity)” value [12]?
Answer: most active compound at 2× MIC

Question: And the IC50 [6]?
Answer: 27.2 µM and 14.5 µg/mL

Question: And the melting point?
Answer: 70 to 72.8 °C

Question: With `CCCCCCCCS(=O)(=O)Nc1ccc(-c2ccccc2)cc1C(=O)C(=O)NCCC[N+](C)(C)C` [Compound 16c] as the compound, how does the “MIC S. aureus” value ([7]; listed as 2, 16c) read?
Answer: 16 μM and 10 μg/mL

Question: What about the “MIC S. aureus” value ([7]; listed as 2) of the same compound?
Answer: 16 µM

Question: And the “MIC S. aureus” value [7]?
Answer: 10 µg/mL

Question: And the “MIC E. coli” value ([8]; listed as 2, 16c)?
Answer: 32 μM and 21 μg/mL

Question: What about the “MIC E. coli” value ([8]; listed as 2) of the same compound?
Answer: 32 µM

Question: And the “MIC P. aeruginosa” value ([9]; listed as 2, 16c)?
Answer: 125 μM and 80 μg/mL

Question: And the “MIC P. aeruginosa” value [9]?
Answer: 125 μM and 80 μg/mL
